Data published in patent US8399033B2, “Anti-bacterial composition comprising extract from barks of Alnus pendula Matsum” (Chung-Ang University Industry Academic Cooperation …, priority 2009, dated 2013).
In brackets after ≈: the same amount, converted by molar mass.

Legend:
[1] = DPPH free radical scavenging activity; assay type: biochemical; conditions: 0.1 mM DPPH, 30 min at 37° C., absorbance 492 nm; for IC50: compounds
Experimental: Each sample (10 μL) was incubated with 0.1 mM DPPH solution (180 μL, in 99.5% ethanol), and vigorously agitated for 10 sec using a vortex mixer, followed by incubation for 30 min at 37° C. Afterwards, the absorbance was measured at 492 nm using an ELISA reader (TECAN, Sazburg, Austria). L-ascorbic acid as positive control drug was prepared and measured according to the method as described above. To determine anti-oxidative activity of each sample, anti-oxidative potential was represented as reducing power by EDA % (Electron donating ability) for DPPH. […] DPPH method is a representative measuring anti-oxidative activity (81). DPPH contains stable radical in normal condition, but its radical was removed where it contacts with a substance having anti-oxidative activity. Therefore, anti-oxidative effects could be assessed by measuring the absorbance changes of DPPH. In this regard, DPPH as a relatively stable free radical in dark-purple state was reduced by amino acids containing sulfur atom such as cystin and glutathione, L-ascorbic acid, BHA or BHT. These color changes have been used to isolate an anti-oxidative substance from a variety of natural materials (82).

DPS-1 (MRSA) = assay: MIC by liquid media dilution assay; assay type: cell-based; conditions: Staphylococcus aureus; DPS-1 (MRSA) clinical isolate; 24 hrs at 37° C., naked-eye observation; read-out: MIC (minimum inhibitory concentration)
Experimental: (§1) S.aureus MSSA ATCC 25923 and MRSA 33591 standard strains were purchased from Korean Culture Center of Microorganisms (KCCM), and two S. aureus clinical isolates were obtained from subjects of WonKwang University Hospital (Iksan, Jeonbuk, South Korea). Mueller Hinton Agar (MHA, Difco, USA) or Mueller Hinton Broth (MHB, Difco, USA) was used as subculture media.
(§2) Minimum Inhibitory Concentration (MIC) was carried out according to the standard of Clinical and Laboratory Standards Institute (CLSI). One strain of MRSA (Methicillin resistant staphylococcus aureus), one strain of MSSA (Methicillin susceptible staphylococcus aureus, MSSA), and two strains of MRSAs as clinical isolates obtained from plastic surgery subjects of WonKwang University Hospital, were suspended in Muller-Hinton Broth. Thereafter, the bacterial solutions were adjusted to the turbidity of 0.5 Mcfarland standard. The bacteria were prepared at a concentration of about 1×10^8 CFU/ml, followed by performing anti-bacterial experiment using a liquid media dilution assay.
(§3) The extract from a bark of Alnus pendula was serially diluted from minimal concentration (0.97 μg/ml) to maximal concentration (2 mg/ml) using DMSO (Dimethylsulfoxide) as a solvent, and then were seeded into each well of 96-well plate with a volume of 10 μl/well, followed by adding 100 μl bacterial solution and 90 μl media. After culturing the mixture for 24 hrs at 37° C. in incubator, MIC was defined as minimal concentration in which the growth of bacteria is inhibited in a naked-eye observation.

DPS-2 (MRSA) = assay: MIC by liquid media dilution assay; assay type: cell-based; conditions: Staphylococcus aureus; DPS-2 (MRSA) clinical isolate; 24 hrs at 37° C., naked-eye observation; read-out: MIC (minimum inhibitory concentration)
Experimental: as §1, §2, §3

[2] = tested on: S. aureus ATCC 25923 (MSSA); assay: MIC by liquid media dilution assay; assay type: cell-based; conditions: Staphylococcus aureus, 24 hrs at 37° C., naked-eye observation, read-out: MIC (minimum inhibitory concentration)
Experimental: as §1, §2, §3

[3] = tested on: S. aureus ATCC 33591 (MRSA); assay: MIC by liquid media dilution assay; assay type: cell-based; conditions: Staphylococcus aureus, 24 hrs at 37° C., naked-eye observation, read-out: MIC (minimum inhibitory concentration)
Experimental: as §1, §2, §3

Row | IC50 [1] | MIC (DPS-1 (MRSA)) | MIC (DPS-2 (MRSA)) | MIC [2] | MIC [3] | IC50 value DPPH radical scavenging activity ([1]; extract and fractions) | SMILES
1 | 22.5 ± 0.71 µM | 125 µg/mL (≈ 381 µM) | 62.5 µg/mL (≈ 190 µM) | 62.5 µg/mL (≈ 190 µM) | 62.5 µg/mL (≈ 190 µM) | – | O=C(/C=C/CCc1ccc(O)c(O)c1)CCc1ccc(O)c(O)c1 [compound 2, 1,7-bis-(3,4-dihydroxyphenyl)-4-heptene-3-one]
2 | 16.4 ± 0.21 µM | – | – | – | – | 5.29 ± 0.05 µg/mL (≈ 30 µM) | O=C1O[C@H]([C@@H](O)CO)C(O)=C1O [Vit. C, L-ascorbic acid]
